{"source": "patent US11039614B2", "about": "“Solid herbicide compositions containing fluroxypyr-meptyl” (Dow AgroSciences LLC, priority 2015, dated 2021)", "key": {"[1]": {"test": "Differential scanning calorimetry (DSC), degree of crystallinity", "type": "physicochemical", "text": "The coated herbicide powder and the water dispersible granule compositions described herein include coated, solid particles of fluroxypyr-meptyl that are largely or nearly completely in crystalline form. The degree of crystallinity of the solid particles of fluroxypyr-meptyl in these compositions (i.e., the weight percent of the fluroxypyr-meptyl that is in crystalline form) can be determined by differential scanning calorimetry (DSC) analysis and comparing the thermal properties of these compositions to a crystalline, non-coated sample of fluroxypyr-meptyl. In some embodiments, the coated particles of fluroxypyr-meptyl in these compositions have a degree of crystallinity that is at least about 70%, at least about 80%, at least about 90%, at least about 91%, at least about 92%, at least about 93%, at least about 94%, at least about 95%, at least about 96%, at least about 97%, at least about 98%, or at least about 99% and is reached within about one day, within about 2 days, within about 3 days, within about 4 days, within about 5 days, within about 6 days, or within about 7 days from the time of preparation of these solid compositions. […]"}, "[2]": {"conditions": "cited from earlier work"}}, "data": [{"smiles": "CCCCCCC(C)OC(=O)COc1nc(F)c(Cl)c(N)c1Cl", "note": "(centres unmarked) [Fluroxypyr-meptyl, 2-methylheptyl ester of 4-amino-3,5-dichloro-6-fluoro-2-pyridyloxyacetic acid]", "values": [{"measurement": "DSC Thermal Data: Heat Flow (absorbed)", "setting": "[1]", "result": 70.01, "unit": "J/g"}, {"measurement": "solubility in water", "setting": "[2]", "result": "< 1", "unit": "ppm"}]}]}
